# Experimental data published in patent US7510836B2, “Alpha arteether resistance domain” (priority 2003, dated 2009).
# Columns and labels:
# E. coli CA8000 = assay: Minimum inhibitory concentration (cross resistance); format: cell-based; details: Escherichia coli; strain CA8000
# Excerpt: (§1) The minimum inhibitory concentrations (MIC) of the quinolone and fluoroquinolone antibiotics were quantified for different strains and compared among each other. The differential response indicate the measure of resistance and sensitivity. Higher MIC indicate more resistance.
# E. coli NK5819 = assay: as above; format: cell-based; details: Escherichia coli; strain NK5819
# Excerpt: as §1
# E. coli DH5a = assay: as above; format: cell-based; details: Escherichia coli; strain DH5a
# Excerpt: as §1
# E. coli ET8000 = assay: as above; format: cell-based; details: Escherichia coli; strain ET8000
# Excerpt: as §1
# E. coli mutant CA8007 = assay: as above; format: cell-based; details: Escherichia coli; strain CA8007
# Excerpt: (§2) In order to develop an arteether resistant mutants from an arteether sensitive strains a reverse strategy was applied. Quinoline/fluoroquinolone (Q/FQs) resistant strains were developed spontaneously i.e. screening overnight log phase culture of the Quinolone/fluoroquinolone sensitive i.e. arteether resistant strain (E coli CA 8000) on the poison agar plate of the Q/FQs. The Q/FQ resistant mutants which appeared on the poison agar plates were first purified through single colony purification and then checked for their arteether sensitivity. These arteether sensitive mutants on the contrary when checked for their Q/Fqs resistance they show different level of Q/FQs resistance.
# as §1
# E. coli mutant CA8006 = assay: as above; format: cell-based; details: Escherichia coli; strain CA8006
# Excerpt: as §2, §1
# E. coli mutant CA8009 = assay: as above; format: cell-based; details: Escherichia coli; strain CA8009
# Excerpt: as §2, §1
# E. coli mutant CA8001 = assay: as above; format: cell-based; details: Escherichia coli; strain CA8001
# Excerpt: as §2, §1
# E. coli mutant CA80012 = assay: as above; format: cell-based; details: Escherichia coli, read-out: minimum inhibitory concentration (MIC)
# Excerpt: as §2, §1
# E. coli mutant CA8002 = assay: as above; format: cell-based; details: Escherichia coli; strain CA8002
# Excerpt: as §2, §1
# E. coli mutant CA8003 = assay: as above; format: cell-based; details: Escherichia coli; strain CA8003
# Excerpt: as §2, §1
# E. coli mutant CA80010 = assay: as above; format: cell-based; details: Escherichia coli, read-out: minimum inhibitory concentration (MIC)
# Excerpt: as §2, §1
# E. coli mutant CA8005 = assay: as above; format: cell-based; details: Escherichia coli; strain CA8005
# Excerpt: as §2, §1
# malaria = details: antimalarial; cited from earlier work
# [1] = test system: E.coli strain CA 8000 (Gyr+); assay: Phenotype of strain (resistance or sensitivity); format: cell-based, Escherichia coli; details: E.coli CA 8000 (Gyr+)
# Method: To ascertain the involvement of gyrA mutation, another E.coli strain NK 5819 which is also GyrA″ and nalidixic acid resistant was tested for arteether sensitivity. As expected, strain NK5819 was also sensitive only to a-isomer of arteether. […] The assays for arteether sensitivity was performed by the standard single disk diffusion method (Bauer et al, 1966). As a next step, we isolated gyrA mutants of E.coli strain CA 8000, which is otherwise Gyr+ and nalidixic acid sensitive. The gyrA mutants of CA8000 were isolated as nalidixic acid resistant colonies (20 ug/ml), after mutagenic treatment with NTG ([…]). The isolated CA8000 gyrA mutants were also sensitive only to a isomer of arteether. […] To define precisely the involvement of gyr genes only in the a-arteether sensitivity, we utilised two recombinant clones (pMK 90 and pMK47 containing functional gyr A and gyrB genes respectively) in trans-complementation assays. For this purpose, we mobilized the plasmid clones into the E.coli gyr mutant strains. The resulting transformants were now nalidixic acid sensitive and a-arteether resistant. This constituted the direct evidence supporting our observation that DNA gyrase enzyme alone is involved in conferring a-arteether sensitivity to E.coli strain. […] DNA gyrase enzyme is essential for the bacterial growth. […]
Structure (SMILES),MIC (E. coli CA8000),MIC (E. coli NK5819),MIC (E. coli DH5a),MIC (E. coli ET8000),MIC (E. coli mutant CA8007),MIC (E. coli mutant CA8006),MIC (E. coli mutant CA8009),MIC (E. coli mutant CA8001),MIC (E. coli mutant CA80012),MIC (E. coli mutant CA8002),MIC (E. coli mutant CA8003),MIC (E. coli mutant CA80010),MIC (E. coli mutant CA8005),Potency relative to artemisinin (malaria),Sensitivity or resistance of the strain (words) [1]
CCn1cc(C(=O)O)c(=O)c2cc(F)c(N3CCNCC3)cc21 [Norfloxacin],< 0.05 µg/mL,25 µg/mL,20 µg/mL,50 µg/mL,15 µg/mL,20 µg/mL,15 µg/mL,15 µg/mL,15 µg/mL,15 µg/mL,15 µg/mL,15 µg/mL,10 µg/mL,,
C[C@@H]1CN(c2c(F)c(N)c3c(=O)c(C(=O)O)cn(C4CC4)c3c2F)C[C@H](C)N1 [Sparfloxacin],< 0.05 µg/mL,10 µg/mL,10 µg/mL,20 µg/mL,20 µg/mL,40 µg/mL,40 µg/mL,20 µg/mL,40 µg/mL,20 µg/mL,20 µg/mL,40 µg/mL,20 µg/mL,,
"CCO[C@H]1O[C@@H]2O[C@@]3(C)CC[C@H]4[C@H](C)CC[C@@H]([C@H]1C)[C@@]24OO3 [arteethers, arteether]",,,,,,,,,,,,,,2-3 times,resistant
